Test results: patent publication US11926613B2, “Kinase inhibitors for the treatment of central and peripheral nervous system disorders” (UNIVERSITY OF MIAMI, priority 2017, dated 2024)
Read-outs that look alike come from different tables or passages of the source.

Assays:
Primary Neurons = assay: HCS neurite outgrowth assay (High Content Screening with Primary Neurons); type: cell-based
[1] = system: neurons from hippocampi of E18 rat embryos; assay: Neurite growth length (% NTL) in cultured E18 rat hippocampal neurons, 9-point dose response, 48 hours; type: cell-based; details: for activity at 0.078 µM / activity at 0.156 µM / activity at 0.312 µM / activity at 0.625 µM / activity at 1.25 µM / activity at 2.5 µM / activity at 5 µM / activity at 10 µM / activity at 20 µM: Rattus norvegicus, Neuron, 48 h
Procedure: PRE-COATING CULTURE PLATES: On the day before the experiment, 96-well plates were pre-coated by plating 50 μl of Poly-D-lysine solution (PDL, 0.5 mg/mL) in each well. The next morning, the plates were washed four or five times with HBSS or PBS (150 μl/rinse), then left in buffer until cell plating
PREPARING THE CELLS: A timed pregnant rat carrying E18 embryos was euthanized using an IACUC approved method. In a laminar flow hood, the embryos were removed and placed in a petri dish containing Hank's Balanced Salt Solution (HBSS) with 20 mM HEPES, pH 7.3. Pup brains were dissected (see Meberg et al., 2003) and hippocampi were collected in 15 mL a conical tube containing Hibernate E with SM1 (2% v/v).
Dissociation media was prepared by combining 4.5 mL of Hibernate E (without SM1) with 0.5 mL of trypsin and 100 μl of DNAse solution. The medium over the hippocampi was carefully removed and replaced with dissociation solution, then incubated at 37° C. for 15-20 minutes, occasionally swirling the tube.
Using flame polished cotton plugged Pasteur pipettes, the dissociation media was removed, and then 5 mL of Hibernate E containing SM1 were added. The tube was swirled to thoroughly wash the tissue. The tissue was allowed to settle to the bottom of the tube, and the rinse solution was carefully removed. This step was repeated 5 times to dilute out trypsin and DNAse and remove any debris from lysed cells.
The final rinse media was removed from the tube and 1 pipette-full (1-2 mL) of Hibernate E with SM1 was added. Using the flame-polished Pasteur pipette (pre-wetted with rinse media), the tube was triturated until all cells had dissociated and no visible chunks of tissue remained. Fewer than ten triturations were typically performed. The volume was adjusted to 8-12 mL using Hibernate E containing SM1, the well was mixed and cell concentration was determined.
PLATING: The cells were diluted in culture media (NbActiv4 Cell-culture media) to a final concentration of 10,000 cells/mL. The HBSS was aspirated from PDL coated plates, and 150 μL of cell solution was loaded in the middle 48 wells at 1500 cells per well. Water was loaded in the outer wells to decrease evaporation from edge wells. Cells were allowed to adhere for 2 hours in tissue culture incubator prior to treatment.
TREATMENT: Compounds were diluted to various concentrations to provide 9 dose response concentrations of 20 μM, 10 μM, 5, μM, 2.5 μM, 1.25 μM, 0.625 μM, 0.3125 μM, 0.15625 μM, and 0.078125 μM. The plates were cultured for 48 hours, exposed to the compound at the various dose response concentrations.
FIXING THE CULTURES: The culture medium was removed from the plates and immediately replaced with 100-200 μl of warm (37° C.) 4% paraformaldehyde (PFA) solution in phosphate-buffered saline (PBS). The cells were fixed for 15-20 minutes at room temperature, and then rinsed with PBS (200 μl/well×3).
STAINING AND IMAGING: The PBS was removed and replaced with 100 μl of blocking/permeabilization buffer (PBS, 0.2% fish gelatin, 0.03% Triton X-100, 0.02% NaN3), then incubated overnight at 4° C. To this was added 100 μl of primary antibody solution (mouse anti-Beta III tubulin in blocking buffer) and incubate overnight at 4° C. The wells were rinsed with PBS (200 μl×3), which was then removed and replaced with 100 μl of secondary antibody solution (Goat anti-mouse Alexa 488, 10 μg/ml Hoechst 33342, 0.2% fish gelatin, 0.02% azide, in PBS). The plate was shaken gently on a rotating shaker for 2 hours, then rinsed with PBS (200 μl×5).
The plate was imaged using a Cellomics ArrayScan VTI in 2 different channels for nuclear staining (Hoechst) and cell body/neurite staining (βIII-tubulin). Typically, nine fields per well were imaged with a 5× objective and automatically traced by the Neuronal Profiling Bioapplication. To get reproducible results, at least 200-300 valid neurons were measured per condition. […]

Compound | EC50 (Primary Neurons) [µM] | EC50 (Primary Neurons; Primary neuron) [µM] | activity at 0.078 µM ([1]; 78 nM) [%] | activity at 0.156 µM ([1]; 156 nM) [%] | activity at 0.312 µM ([1]; 312 nM) [%] | activity at 0.625 µM ([1]; 625 nM) [%] | activity at 1.25 µM ([1]; 1.25 μM) [%] | activity at 2.5 µM ([1]; 2.5 μM) [%] | activity at 5 µM ([1]; 5 μM) [%] | activity at 10 µM ([1]; 10 μM) [%] | activity at 20 µM ([1]; 20 μM) [%] | neurite growth length (% NTL) ([1]; 78 nM) | neurite growth length (% NTL) ([1]; 156 nM) | neurite growth length (% NTL) ([1]; 312 nM) | neurite growth length (% NTL) ([1]; 625 nM) | neurite growth length (% NTL) ([1]; 1.25 μM) | neurite growth length (% NTL) ([1]; 2.5 μM) | neurite growth length (% NTL) ([1]; 5 μM) | neurite growth length (% NTL) ([1]; 10 μM) | neurite growth length (% NTL) ([1]; 20 μM)
2-(4-(((3R,4R)-4-(isonicotinamido)pyrrolidin-3- yl)carbamoyl)benzoyl)-4-methoxyphenyl acetate [Example A89] | 8.08 |  |  |  |  |  |  |  |  |  |  |  |  |  |  |  |  |  |  | 
2-(4-(((3R,4R)-4-(isonicotinamido)pyrrolidin-3- yl)carbamoyl)benzoyl)-4-methoxyphenyl benzoate [Example A87] | 13.1 |  |  |  |  |  |  |  |  |  |  |  |  |  |  |  |  |  |  | 
O=C(N[C@@H]1CNC[C@H]1NC(=O)c1ccncc1)c1ccncc1 (stereo in doubt) [Example A10, N-[(3R,4R)-4-(pyridine-4-amido)pyrrolidin-3-yl]pyridine-4-carboxamide] |  | 0.93 | 91.7 | 91.2 | 87.5 | 88.2 | 83.7 | 82.9 | 85.9 | 86 | 92.6 |  |  |  |  |  |  |  |  | 
O=C(N[C@@H]1CNC[C@H]1NC(=O)c1ccc(C(=O)c2ccccc2)cc1)c1ccncc1 (stereo in doubt) [Example A13, N-[(3R,4R)-4-(4-benzoylbenzamido)pyrrolidin-3-yl]pyridine-4-carboxamide] |  | 4.96 | 99.5 | 101 | 97.7 | 103 | 106 | 113 | 120 | 129 | 147 |  |  |  |  |  |  |  |  | 
O=C(N[C@@H]1CNC[C@H]1NC(=O)c1ccncc1)c1ccccc1 (stereo in doubt) [Example A20, N-[(3R,4R)-4-benzamidopyrrolidin-3-yl]pyridine-4-carboxamide] |  | 9.49 | 86.2 | 81.5 | 77.7 | 86.1 | 88.4 | 90.2 | 90.7 | 93.8 | 103 |  |  |  |  |  |  |  |  | 
COc1ccc(O)c(C(=O)c2ccc(C(=O)NC3CNC[C@H]3NC(=O)c3ccncc3)cc2)c1F (stereo in doubt) [Example A32, N-[(3R,4S)-4-[4-(2-fluoro-6-hydroxy-3-methoxybenzoyl)benzamido]pyrrolidin-3-yl]pyridine-4-carboxamide] | > 20 |  |  |  |  |  |  |  |  |  |  | 98.72 | 86.89 | 88.20 | 84.61 | 81.36 | 90.59 | 88.24 | 82.90 | 86.59
COc1ccc(O)c(C(=O)c2ccc(C(=O)N[C@H]3CNC[C@@H]3NC(=O)c3ccncc3)cc2)c1F (stereo in doubt) [Example A34, N-[(3S,4S)-4-[4-(2-fluoro-6-hydroxy-3-methoxybenzoyl)benzamido]pyrrolidin-3-yl]pyridine-4-carboxamide] | 13 |  |  |  |  |  |  |  |  |  |  | 102.90 | 102.77 | 92.06 | 92.27 | 95.84 | 105.94 | 110.06 | 118.29 | 130.91
COc1ccc(OC)c(C(=O)c2ccc(C(=O)Nc3ccncc3NC(=O)c3ccncc3)cc2)c1F [Example A1, N-{4-[4-(2-fluoro-3,6-dimethoxybenzoyl)benzamido]pyridin-3-yl}pyridine-4-carboxamide] |  | 9.34 | 89.9 | 89 | 89.6 | 91 | 93.5 | 85.8 | 92.9 | 87 | 84.6 |  |  |  |  |  |  |  |  | 
COc1ccc(O)c(C(=O)c2ccc(C(=O)Nc3ccncc3NC(=O)c3ccncc3)cc2)c1F [Example A2, N-{4-[4-(2-fluoro-6-hydroxy-3-methoxybenzoyl)benzamido]pyridin-3-yl}pyridine-4-carboxamide] |  | 1.81 | 93.8 | 96.2 | 84.6 | 93 | 88.9 | 91.1 | 94.1 | 93.4 | 100 |  |  |  |  |  |  |  |  | 
